Experimental findings from ChEMBL document CHEMBL5154718, “Synthesis, biological evaluation, and molecular modeling simulations of new heterocyclic hybrids as multi-targeted anti-Alzheimer's agents” (Eur J Med Chem, 2022) are described below.

In data set [1] the target is T1, Amyloid-beta precursor protein (Homo sapiens, UniProt P05067). As to the kind of experiment: Inhibition of amyloid beta (1 to 42 ) (unknown origin) self aggregation measured after 3 hrs by ThT fluorescence assay.
A short description of data set [2]: Toxicity in Sprague-Dawley rat assessed as mortality up to 120 mg/kg, ip administered as single dose measured after 24 hrs. It counts as organism-based. The settings on record: in vivo.
The target of data set [3] is T1, Amyloid-beta precursor protein. As to the kind of experiment: Inhibition of amyloid beta (1 to 42 ) (unknown origin) self aggregation at 25 uM measured after 3 hrs by ThT fluorescence assay relative to control.
Data set [4] deals with T2, Acetylcholinesterase (Homo sapiens, UniProt P22303).
Description: Inhibition of C-terminal 6His-tagged human recombinant AChE (32 to 614 residues) expressed in HEK293 cells using acetylthiocholine iodide as substrate preincubated for 5 mins followed by substrate addition by Ellman's method
The next data set concerns AChE. The data set is classed as toxicity, cell-based. The settings on record: human, probe acetylthiocholine iodide; read-out: Ratio IC50.
Data set [5] has as its target T3, Cholinesterase (Homo sapiens, UniProt P06276).
Description: Inhibition of C-terminal 6His-tagged human recombinant BuChE (29 to 602 residues) using butyrylthiocholine iodide as substrate preincubated for 5 mins followed by substrate addition by Ellman's method
A short description of data set [6]: Metal chelating activity assessed as Cu2+-compound complex formation by measuring bathochromic shift at 30 to 60 uM by UV-visible spectrophotometry. The note with it: dose 30-60 µM.
The nature of data set [7]: Metal chelating activity assessed as Zn2+-compound complex formation by measuring hyperchromic shift at 30 to 60 uM by UV-visible spectrophotometry. The settings on record: dose 30-60 µM.
Data set [8] in a line: Metal chelating activity assessed as Fe2+-compound complex formation by measuring hyperchromic shift at 30 to 60 uM by UV-visible spectrophotometry. The settings on record: dose 30-60 µM.
The next data set is described as follows: animal or person. The note with it: Rattus norvegicus, Sprague-Dawley, Brain, route ip, time 1 hrs. It counts as functional.
Another data set in a line: in vitro. The note with it: human, HepG2 cells.
Another data set is described as follows: in vivo. The note with it: Sprague-Dawley, rat, ip.
Data set [9] is described as follows: Metal chelating activity assessed as Fe2+-compound complex formation by measuring bathochromic shift at 30 to 60 uM by UV-visible spectrophotometry. The note with it: dose 30-60 µM.
Data set [10] is described as follows: Metal chelating activity assessed as Zn2+-compound complex formation by measuring bathochromic shift at 30 to 60 uM by UV-visible spectrophotometry. The note with it: dose 30-60 µM.
Data set [11] can be described thus: Metal chelating activity assessed as Cu2+-compound complex formation by measuring hyperchromic shift at 30 to 60 uM by UV-visible spectrophotometry. The settings on record: dose 30-60 µM.
Data set [12] in a line: Metal chelating activity assessed as Zn2+-compound complex formation by measuring hypochromic shift at 30 to 60 uM by UV-visible spectrophotometry. The note with it: dose 30-60 µM.
Data set [13] concerns the target T2, Acetylcholinesterase. In words: Inhibition of human recombinant AChE using acetylthiocholine as substrate preincubated for 5 mins followed by substrate addition by Ellman's method.
Data set [14] has as its target T3, Cholinesterase. In words: Inhibition of human plasma BuChE using butyrylthiocholine as substrate preincubated for 5 mins followed by substrate addition by Ellman's method. It counts as cell-free.

Active and inactive are the calls of the source. The rule behind the calls is not given here.

T3 sequence (P06276 whole entry): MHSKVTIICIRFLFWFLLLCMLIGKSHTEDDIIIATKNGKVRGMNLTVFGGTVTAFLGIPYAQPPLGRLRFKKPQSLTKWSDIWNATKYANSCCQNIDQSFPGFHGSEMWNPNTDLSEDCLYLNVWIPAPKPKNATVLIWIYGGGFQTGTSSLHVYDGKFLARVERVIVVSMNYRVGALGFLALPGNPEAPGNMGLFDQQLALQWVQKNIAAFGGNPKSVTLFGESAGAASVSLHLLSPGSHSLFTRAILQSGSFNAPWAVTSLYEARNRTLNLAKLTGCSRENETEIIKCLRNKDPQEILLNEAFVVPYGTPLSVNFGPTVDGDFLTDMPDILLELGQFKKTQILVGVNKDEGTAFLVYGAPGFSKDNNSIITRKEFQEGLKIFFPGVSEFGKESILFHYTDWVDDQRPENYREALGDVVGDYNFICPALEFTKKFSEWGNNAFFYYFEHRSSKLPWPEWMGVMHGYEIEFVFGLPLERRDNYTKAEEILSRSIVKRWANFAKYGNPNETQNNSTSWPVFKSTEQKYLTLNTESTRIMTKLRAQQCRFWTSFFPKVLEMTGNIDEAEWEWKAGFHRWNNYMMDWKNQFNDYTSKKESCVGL
T1 sequence (P05067 whole entry): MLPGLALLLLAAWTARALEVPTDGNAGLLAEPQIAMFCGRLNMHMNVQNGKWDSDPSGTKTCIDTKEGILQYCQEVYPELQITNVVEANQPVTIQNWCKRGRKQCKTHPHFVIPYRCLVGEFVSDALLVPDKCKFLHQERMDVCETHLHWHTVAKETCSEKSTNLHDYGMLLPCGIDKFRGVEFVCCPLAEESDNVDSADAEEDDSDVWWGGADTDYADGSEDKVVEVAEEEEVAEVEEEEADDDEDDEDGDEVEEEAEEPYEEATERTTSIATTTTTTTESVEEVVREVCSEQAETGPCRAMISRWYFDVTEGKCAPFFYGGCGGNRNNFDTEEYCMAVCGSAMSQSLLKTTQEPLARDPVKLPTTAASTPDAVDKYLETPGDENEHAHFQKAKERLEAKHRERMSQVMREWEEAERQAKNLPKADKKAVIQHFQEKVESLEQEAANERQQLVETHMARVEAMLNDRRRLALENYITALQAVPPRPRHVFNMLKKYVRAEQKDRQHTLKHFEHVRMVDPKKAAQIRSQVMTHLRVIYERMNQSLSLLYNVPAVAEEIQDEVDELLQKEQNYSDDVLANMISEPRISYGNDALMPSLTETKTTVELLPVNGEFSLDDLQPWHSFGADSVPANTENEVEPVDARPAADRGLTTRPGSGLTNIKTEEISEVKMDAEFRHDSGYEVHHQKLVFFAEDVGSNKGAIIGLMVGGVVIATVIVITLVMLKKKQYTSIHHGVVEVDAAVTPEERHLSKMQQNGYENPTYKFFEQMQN
T2 sequence (P22303 whole entry): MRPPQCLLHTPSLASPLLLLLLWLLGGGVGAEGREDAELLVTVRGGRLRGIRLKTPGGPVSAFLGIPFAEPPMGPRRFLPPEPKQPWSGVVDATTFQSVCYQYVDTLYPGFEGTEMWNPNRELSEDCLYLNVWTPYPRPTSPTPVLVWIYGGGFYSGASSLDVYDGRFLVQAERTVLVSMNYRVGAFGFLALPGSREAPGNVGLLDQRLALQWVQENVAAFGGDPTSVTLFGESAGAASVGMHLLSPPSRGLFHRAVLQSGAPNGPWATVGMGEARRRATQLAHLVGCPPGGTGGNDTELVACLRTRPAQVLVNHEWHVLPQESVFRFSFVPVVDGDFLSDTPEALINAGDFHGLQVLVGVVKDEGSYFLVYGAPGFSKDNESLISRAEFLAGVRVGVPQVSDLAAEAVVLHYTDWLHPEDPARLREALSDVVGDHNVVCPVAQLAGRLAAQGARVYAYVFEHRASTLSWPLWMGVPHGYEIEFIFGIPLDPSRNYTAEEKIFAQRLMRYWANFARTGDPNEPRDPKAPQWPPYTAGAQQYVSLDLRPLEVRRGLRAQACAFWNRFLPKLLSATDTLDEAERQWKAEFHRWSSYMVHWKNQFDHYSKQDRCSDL
Description for in vitro: Cytotoxicity against human HepG2 cells assessed as cell growth inhibition incubated for 72 hrs by MTT assay
Description for in vivo: Toxicity in Sprague-Dawley rat assessed as median lethal dose administered intraperitoneally as single dose

Broadly, the IC50 is the point on the concentration scale where inhibition reaches its midpoint. Broadly, the inhibition is how much of the control response was suppressed. Higher therefore signals a response far below the control. In general, inhibition in vivo refers to the change of the read-out against control, counted positive when it falls. Low values mean a response near the control, high ones a response far below the control. On to `O=C(CCN1CCN(Cc2ccccc2)CC1)Nc1n[nH]c2ncccc12`, for which the IC50 in [1] worked out at 13300 nM; against Acetylcholinesterase [4] it was 34 nM; on Cholinesterase [5], 3570 nM. Besides, in [2], the Activity result is recorded as “Non-Toxic”. The inhibition in data set [3] stood at 55.5%. The selectivity ratio at 72 h with AChE came to 735. The result in data set [6], in [7] and in data set [8] was Active. The compound further gave an inhibition in vivo at 10 mg/kg in the data set “animal or person” of 35%. In “in vitro”, this compound came in with an IC50 at 72 h of 25000 nM.
As to `O=C(CCN1CCCCC1)Nc1n[nH]c2ncccc12`, the midpoint of inhibition against Acetylcholinesterase [4], the IC50, lay at 658 nM.
Compound `Cc1ccc2nc3c(c(NCCN4CCCCC4)c2c1)CCCC3` had an IC50 against Acetylcholinesterase [4] of 2540 nM.
The compound `O=C(CN1CCN(c2ccccc2)CC1)Nc1n[nH]c2ncccc12` registered a 50% inhibitory concentration (IC50) against Acetylcholinesterase [4] of 1950 nM.
For `CN1CCN(c2c3c(nc4ccc([N+](=O)[O-])cc24)CCCC3)CC1`, the values for the IC50 (in data set [1]; against Acetylcholinesterase [4]; against Cholinesterase [5]) were 4490 nM, 245 nM and 166 nM, respectively. In data set [3], this compound had an inhibition of 66.4%.
One may read the LD50 as the dose expected to kill half of the subjects tested. As to `Cc1ccc2nc3c(c(NCCN4CCOCC4)c2c1)CCCC3`, the figures for the IC50 (in data set [1]; on Acetylcholinesterase [4]; against Cholinesterase [5]) were 15000 nM, 131 nM and 3130 nM, respectively. In addition, in the data set “in vivo”, the LD50 was 96.5 mg/kg. In data set [3], this compound came in with an inhibition of 54.6%. Further, the selectivity ratio at 72 h in the data set on AChE stood at 72.8. Moreover, the outcome in data set [6], in data set [9], in data set [7], in data set [8], in data set [10] and in data set [11] was Active. In “animal or person”, this compound yielded an inhibition in vivo at 10 mg/kg of 35%. Also, the half-inhibitory concentration (IC50) at 72 h in “in vitro” amounted to 9530 nM.
At Acetylcholinesterase [4], `O=[N+]([O-])c1ccc2nc3c(c(N4CCCCC4)c2c1)CCCC3` registered an IC50 of 1890 nM.
As to `Cc1ccc2nc3c(c(NCCN4CCN(C)CC4)c2c1)CCCC3`, on Acetylcholinesterase [4], half-maximal inhibition (IC50) required 974 nM.
In the case of `Cc1ccc2nc3c(c(NCCCl)c2c1)CCCC3`, on Acetylcholinesterase [4], it took 763 nM to reach half-maximal inhibition (IC50).
On Acetylcholinesterase [4], `CN1CCN(CCC(=O)Nc2n[nH]c3ncccc23)CC1` displayed a 50% inhibitory concentration (IC50) of 844 nM.
For `CC(=O)Nc1ccc2nc3c(c(N4CCOCC4)c2c1)CCCC3`, at Acetylcholinesterase [4], the IC50 amounted to 1110 nM.
Regarding `Cc1ccc2nc3c(c(N4CCN(C)CC4)c2c1)CCCC3`, the concentration for half-maximal inhibition (IC50) at Acetylcholinesterase [4] turned out to be 440 nM.
Take `O=[N+]([O-])c1ccc2nc3c(c(Nc4[nH]nc5ncccc45)c2c1)CCCC3`: the IC50 amounted to 777 nM in data set [1], 299 nM on Acetylcholinesterase [4] and 429 nM on Cholinesterase [5]. The same compound displayed an inhibition in data set [3] of 81.5%. Further, the selectivity ratio at 72 h in the data set on AChE stood at 105. In addition, the outcome in data set [6], in data set [7], in [8] and in data set [11] was Active. In the data set “in vitro”, this compound showed an IC50 at 72 h of 31300 nM.
Take `Cc1ccc2nc3c(c(Nc4[nH]nc5ncccc45)c2c1)CCCC3`: the IC50 against Acetylcholinesterase [4] came to 811 nM.
Take `CC(=O)Nc1ccc2nc3c(c(N4CCCCC4)c2c1)CCCC3`: the half-inhibitory concentration (IC50) came to 1300 nM in data set [1], 301 nM against Acetylcholinesterase [4] and 459 nM at Cholinesterase [5]. Moreover, the inhibition in data set [3] came out at 77.3%.
Take `COc1cc2nc3c(c(N4CCOCC4)c2cc1OC)CCCC3`: the outcome in data set [12], in data set [6], in data set [9], in [7], in data set [8] and in [11] was Active. For the same compound, the IC50 in data set [1] came out at 1230 nM; against Acetylcholinesterase [4] it was 62 nM; on Cholinesterase [5] it was 767 nM. The Activity entry in [2] was “Non-Toxic”. In addition, the inhibition in data set [3] was 78.6%. Further, the selectivity ratio at 72 h in the data set with AChE stood at 102. The compound also gave an inhibition in vivo at 10 mg/kg in the data set “animal or person” of 35%. Also, the IC50 at 72 h in the data set “in vitro” is 6300 nM.
Take `O=C(CN1CCN(Cc2ccccc2)CC1)Nc1n[nH]c2ncccc12`: the IC50 in [1] was found to be 5670 nM; at Acetylcholinesterase [4] it was 301 nM; on Cholinesterase [5], 2810 nM. Further, in data set [3], the inhibition is 65%.
For `O=C(CCN1CCOCC1)Nc1n[nH]c2ncccc12`, in that order: 2130 nM, 275 nM, 473 nM and 71.8%.
Compound `Cc1ccc2nc3c(c(N4CCN(c5c6c(nc7ccc(C)cc57)CCCC6)CC4)c2c1)CCCC3` displayed an IC50 against Acetylcholinesterase [4] of 521 nM.
As for `Cc1ccc2nc3c(c(N4CCOCC4)c2c1)CCCC3`, the IC50 on Acetylcholinesterase [4] was 1780 nM.
Same read-out and setting: for `O=[N+]([O-])c1ccc2nc3c(c(N4CCOCC4)c2c1)CCCC3` the value was 1220 nM; for `Cc1ccc2nc3c(c(NCCN4CCN(Cc5ccccc5)CC4)c2c1)CCCC3`, 6380 nM.
As for `COc1cc2c(cc1OC)C(=O)C(CC1CCN(Cc3ccccc3)CC1)C2` (centres undefined) [DONEPEZIL], the LD50 in “in vivo” amounted to 32.5 mg/kg. In the data set “animal or person”, at 10 mg/kg the inhibition in vivo was 46.5%.
Consider `O=C(CCN1CCN(c2ccccc2)CC1)Nc1n[nH]c2ncccc12`, for which the results for the IC50 (in data set [1]; on Acetylcholinesterase [4]; at Cholinesterase [5]) were 1980 nM, 230 nM and 782 nM, respectively. The same compound gave an inhibition in data set [3] of 65.5%.
`Cc1ccc2nc3c(c(NCCO)c2c1)CCCC3`: the results for the IC50 (in data set [1]; against Acetylcholinesterase [4]; against Cholinesterase [5]) were 2950 nM, 180 nM and 840 nM, respectively. Further, the inhibition in [3] amounted to 69.8%.
Take `c1ccc2c(NCCN3CCOCC3)c3c(nc2c1)CCCC3`: the IC50 on Acetylcholinesterase [13] came to 93 nM; on Cholinesterase [14], 16 nM.
Take `Nc1nn(-c2c3c(nc4ccc([N+](=O)[O-])cc24)CCCC3)c2ncccc12`: the result in data set [12] and in data set [8] was Active. Further, the IC50 in data set [1] is 31800 nM; on Acetylcholinesterase [4], 56 nM; against Cholinesterase [5] it was 5220 nM. Further, the inhibition in data set [3] turned out to be 48%. Moreover, in the data set with AChE, the selectivity ratio at 72 h is 800. The compound also returned an IC50 at 72 h in the data set “in vitro” of 44800 nM.
Compound `O=C(Cn1nc2ncccc2c1NC(=O)Cn1nc2ncccc2c1NC(=O)CN1CCN(Cc2ccccc2)CC1)Nc1[nH]nc2ncccc12` showed an IC50 against Acetylcholinesterase [4] of 18000 nM.
Regarding `Cc1ccc2nc3c(c(N4CCCCC4)c2c1)CCCC3`, the IC50 in data set [1] is 6700 nM; at Acetylcholinesterase [4], 118 nM; on Cholinesterase [5], 1990 nM. Besides, the LD50 in “in vivo” is 42 mg/kg. Also, in data set [3], the inhibition was 61.9%. In the data set on AChE, the selectivity ratio at 72 h was determined as 321. In addition, the outcome in [6], in data set [9], in data set [7], in data set [8], in data set [10] and in [11] was Active. In “animal or person”, this compound showed an inhibition in vivo at 10 mg/kg of 35%. Also, half-maximal inhibition in the data set “in vitro” (IC50 at 72 h) required 37900 nM.
